# System: MV-4-11 cells
# Assay: Gene expression microarray analysis (Affymetrix PrimeView) and GSEA
# Assay type: cell-based, human
# Parameters: RFU PODN (11730768_x_at) / Fold change /veh PODN (11730768_x_at) / RFU LINC00158 (11744669_a_at) / Fold change /veh LINC00158 (11744669_a_at) / RFU DUSP10 (11751237_a_at) / Fold change /veh DUSP10 (11751237_a_at) / RFU ID3 (11757404_x_at) / Fold change /veh ID3 (11757404_x_at) / RFU PLEKHG5 (11737974_s_at) / Fold change /veh PLEKHG5 (11737974_s_at) / RFU LRRC4B (11730491_at) / Fold change /veh LRRC4B (11730491_at) / RFU GIMAP4 (11747438_a_at) / Fold change /veh GIMAP4 (11747438_a_at) / RFU KRT8 (11758183_x_at) / Fold change /veh KRT8 (11758183_x_at) / RFU CNN1 (11734310_a_at) / Fold change /veh CNN1 (11734310_a_at) / RFU VPS37D (11726825_at) / Fold change /veh VPS37D (11726825_at) / RFU C10orf10 (11716522_x_at) / Fold change /veh C10orf10 (11716522_x_at) / RFU KIR2DL2 /// KIR2DL4 /// KIR2DL5A /// KIR2DL5B /// KIR2DS1 /// KIR2DS2 /// KIR2DS3 /// KIR2DS4 /// KIR3DL3 /// KIR3DL3 /// KIR3DS1 (11738374_at) / Fold change /veh KIR2DL2 /// KIR2DL4 /// KIR2DL5A /// KIR2DL5B /// KIR2DS1 /// KIR2DS2 /// KIR2DS3 /// KIR2DS4 /// KIR3DL3 /// KIR3DL3 /// KIR3DS1 (11738374_at) / RFU C1QL1 (11718748_at) / Fold change /veh C1QL1 (11718748_at) / RFU TMPRSS4 (11747572_a_at) / Fold change /veh TMPRSS4 (11747572_a_at) / RFU HAMP (11756126_x_at) / Fold change /veh HAMP (11756126_x_at) / RFU RNFT2 (11725882_a_at) / Fold change /veh RNFT2 (11725882_a_at) / RFU NR4A2 (11747474_a_at) / Fold change /veh NR4A2 (11747474_a_at) / RFU ABCC12 (11746883_a_at) / Fold change /veh ABCC12 (11746883_a_at) / RFU TMEM136 (11760407_x_at) / Fold change /veh TMEM136 (11760407_x_at) / RFU CLDN22 /// WWC2 (11732394_at) / Fold change /veh CLDN22 /// WWC2 (11732394_at) / RFU HLA-DPB1 (11760878_x_at) / Fold change /veh HLA-DPB1 (11760878_x_at) / RFU SPINT1 (11716480_a_at) / Fold change /veh SPINT1 (11716480_a_at) / RFU GAP43 (11754022_s_at) / Fold change /veh GAP43 (11754022_s_at) / RFU A4GNT (11735810_at) / Fold change /veh A4GNT (11735810_at) / RFU PRB3 (11715151_x_at) / Fold change /veh PRB3 (11715151_x_at) / RFU TUBB4B (11761932_at) / Fold change /veh TUBB4B (11761932_at) / RFU CAPN14 (11732068_a_at) / Fold change /veh CAPN14 (11732068_a_at) / RFU TMCC2 (11721928_a_at) / Fold change /veh TMCC2 (11721928_a_at) / RFU IRGQ (11745062_a_at) / Fold change /veh IRGQ (11745062_a_at) / RFU FAM174B (11720279_a_at) / Fold change /veh FAM174B (11720279_a_at) / RFU TMPRSS4 (11748680_a_at) / Fold change /veh TMPRSS4 (11748680_a_at) / RFU FAM212B (11763350_a_at) / Fold change /veh FAM212B (11763350_a_at) / RFU PLEKHG5 (11743358_a_at) / Fold change /veh PLEKHG5 (11743358_a_at) / RFU ZSCAN30 (11745921_a_at) / Fold change /veh ZSCAN30 (11745921_a_at) / RFU CMKLR1 (11741424_a_at) / Fold change /veh CMKLR1 (11741424_a_at) / RFU LOC101060620 /// MAPK8IP1 (11723275_at) / Fold change /veh LOC101060620 /// MAPK8IP1 (11723275_at) / RFU SPTSSB (11747773_x_at) / Fold change /veh SPTSSB (11747773_x_at) / RFU PRSS12 (11739890_at) / Fold change /veh PRSS12 (11739890_at) / RFU BIN1 (11741810_x_at) / Fold change /veh BIN1 (11741810_x_at) / RFU WNT11 (11732464_a_at) / Fold change /veh WNT11 (11732464_a_at) / RFU C10orf10 (11716521_a_at) / Fold change /veh C10orf10 (11716521_a_at) / RFU C5orf56 (11738089_at) / Fold change /veh C5orf56 (11738089_at) / RFU CYB561 (11721691_x_at) / Fold change /veh CYB561 (11721691_x_at) / RFU ANKRD19P (11752326_a_at) / Fold change /veh ANKRD19P (11752326_a_at) / RFU OR2T12 /// OR2T33 /// OR2T8 (11738714_s_at) / Fold change /veh OR2T12 /// OR2T33 /// OR2T8 (11738714_s_at) / RFU VCAN (11748164_a_at) / Fold change /veh VCAN (11748164_a_at) / RFU JSRP1 (11732532_at) / Fold change /veh JSRP1 (11732532_at) / RFU KRTAP10-11 (11738290_x_at) / Fold change /veh KRTAP10-11 (11738290_x_at) / RFU MYO3A (11730013_a_at) / Fold change /veh MYO3A (11730013_a_at) / RFU EBF3 (11725865_a_at) / Fold change /veh EBF3 (11725865_a_at) / RFU CAMK2N1 (11719241_x_at) / Fold change /veh CAMK2N1 (11719241_x_at) / RFU C5orf56 (11738088_a_at) / Fold change /veh C5orf56 (11738088_a_at) / RFU OLFML3 (11715873_a_at) / Fold change /veh OLFML3 (11715873_a_at) / RFU LOC100653217 /// NTM (11731650_a_at) / Fold change /veh LOC100653217 /// NTM (11731650_a_at) / RFU MAPK11 (11762145_a_at) / Fold change /veh MAPK11 (11762145_a_at) / RFU FIZ1 (11724087_x_at) / Fold change /veh FIZ1 (11724087_x_at) / RFU OASL (11726364_x_at) / Fold change /veh OASL (11726364_x_at) / RFU SOX15 (11748057_x_at) / Fold change /veh SOX15 (11748057_x_at) / RFU CD79A (11719716_a_at) / Fold change /veh CD79A (11719716_a_at) / RFU HIST1H1D (11736915_at) / Fold change /veh HIST1H1D (11736915_at) / RFU CASKIN2 (11723855_a_at) / Fold change /veh CASKIN2 (11723855_a_at) / RFU LOC730098 (11760151_x_at) / Fold change /veh LOC730098 (11760151_x_at) / RFU OR4N2 (11742367_at) / Fold change /veh OR4N2 (11742367_at) / RFU PRRT2 (11749266_a_at) / Fold change /veh PRRT2 (11749266_a_at) / RFU SNX32 (11753110_a_at) / Fold change /veh SNX32 (11753110_a_at) / RFU CDHR5 (11726645_a_at) / Fold change /veh CDHR5 (11726645_a_at) / RFU RCAN1 (11760418_a_at) / Fold change /veh RCAN1 (11760418_a_at) / RFU FAM167A (11723789_a_at) / Fold change /veh FAM167A (11723789_a_at) / RFU FAM26E (11764081_at) / Fold change /veh FAM26E (11764081_at) / RFU ISYNA1 (11749810_s_at) / Fold change /veh ISYNA1 (11749810_s_at) / RFU ACY1 (11761880_at) / Fold change /veh ACY1 (11761880_at) / RFU 11764098_at / Fold change /veh 11764098_at / RFU SAMD14 (11745864_x_at) / Fold change /veh SAMD14 (11745864_x_at) / RFU NPB (11741838_a_at) / Fold change /veh NPB (11741838_a_at) / RFU TMPRSS6 (11731388_a_at) / Fold change /veh TMPRSS6 (11731388_a_at) / RFU KRTAP10-2 (11738614_at) / Fold change /veh KRTAP10-2 (11738614_at) / RFU ARHGAP8 /// PRR5-ARHGAP8 (11727945_x_at) / Fold change /veh ARHGAP8 /// PRR5-ARHGAP8 (11727945_x_at) / RFU KRTAP5-7 /// NADSYN1 (11734609_at) / Fold change /veh KRTAP5-7 /// NADSYN1 (11734609_at) / RFU RASL12 (11751679_a_at) / Fold change /veh RASL12 (11751679_a_at) / RFU CDKN2B (11736163_a_at) / Fold change /veh CDKN2B (11736163_a_at) / RFU PRF1 (11729649_at) / Fold change /veh PRF1 (11729649_at) / RFU, ZNF638 /// ZNF638-IT1 / Fold change vs veh, ZNF638 /// ZNF638-IT1 / RFU, PANK3 / Fold change vs veh, PANK3 / RFU, SH3YL1 / Fold change vs veh, SH3YL1 / RFU, ZEB2 / Fold change vs veh, ZEB2 / RFU, NRIP1 / Fold change vs veh, NRIP1 / RFU, PTTG1IP / Fold change vs veh, PTTG1IP / RFU, CAPN2 / Fold change vs veh, CAPN2 / RFU, MED14 / Fold change vs veh, MED14 / RFU, SNORA58 / Fold change vs veh, SNORA58 / RFU, C1orf63 / Fold change vs veh, C1orf63 / RFU, LRRFIP1 / Fold change vs veh, LRRFIP1 / RFU, NDUFAF7 / Fold change vs veh, NDUFAF7 / RFU, SLC12A2 / Fold change vs veh, SLC12A2 / RFU, IBTK / Fold change vs veh, IBTK / RFU, ESF1 / Fold change vs veh, ESF1 / Fold change vs veh, TMEM50B / RFU, TAOK1 / Fold change vs veh, TAOK1 / RFU, ACBD3 / Fold change vs veh, ACBD3 / RFU, TMA16 / Fold change vs veh, TMA16 / RFU, RWDD3 / Fold change vs veh, RWDD3 / RFU, BCAT1 / Fold change vs veh, BCAT1 / RFU, EDEM3 / Fold change vs veh, EDEM3 / RFU, TMEM33 / Fold change vs veh, TMEM33 / RFU, WDR75 / Fold change vs veh, WDR75 / RFU, AHCTF1 / Fold change vs veh, AHCTF1 / RFU, TFRC / Fold change vs veh, TFRC / RFU, ZDHHC17 / Fold change vs veh, ZDHHC17 / RFU, NOM1 / Fold change vs veh, NOM1 / RFU, ARL8B / Fold change vs veh, ARL8B / RFU, ZBTB11 / Fold change vs veh, ZBTB11 / RFU, TAMM41 / Fold change vs veh, TAMM41 / RFU, KIAA1704 /// LOC100996395 / Fold change vs veh, KIAA1704 /// LOC100996395 / RFU, ING1 / Fold change vs veh, ING1 / RFU, TRMT61B / Fold change vs veh, TRMT61B / RFU, FUBP3 / Fold change vs veh, FUBP3 / RFU, TP53 / Fold change vs veh, TP53 / RFU, TNKS2 / Fold change vs veh, TNKS2 / RFU, ZFP14 / Fold change vs veh, ZFP14 / RFU, ACTR2 / Fold change vs veh, ACTR2 / RFU, PPP3R1 / Fold change vs veh, PPP3R1 / RFU, PIK3R1 / Fold change vs veh, PIK3R1 / RFU, HNRNPA1 / Fold change vs veh, HNRNPA1 / RFU, RNF170 / Fold change vs veh, RNF170 / RFU, ZNF28 / Fold change vs veh, ZNF28 / RFU, RNGTT / Fold change vs veh, RNGTT / RFU, OGT / Fold change vs veh, OGT / RFU, BRD1 / Fold change vs veh, BRD1 / RFU, MARS / Fold change vs veh, MARS / RFU, ZNF655 / Fold change vs veh, ZNF655 / RFU, FAHD1 / Fold change vs veh, FAHD1 / RFU, BDP1 / Fold change vs veh, BDP1 / RFU, LRRCC1 / Fold change vs veh, LRRCC1 / RFU, ARID1A / Fold change vs veh, ARID1A / RFU, ZNF146 / Fold change vs veh, ZNF146 / RFU, ZNF330 / Fold change vs veh, ZNF330 / RFU, GPN3 / Fold change vs veh, GPN3 / RFU, C9orf123 / Fold change vs veh, C9orf123 / RFU, N4BP2L2 / Fold change vs veh, N4BP2L2 / RFU, ARFIP1 / Fold change vs veh, ARFIP1 / RFU, FAM179B / Fold change vs veh, FAM179B / RFU, BCL10 / Fold change vs veh, BCL10 / RFU, UHRF1BP1L / Fold change vs veh, UHRF1BP1L / RFU, BET1 / Fold change vs veh, BET1 / RFU, CNOT2 / Fold change vs veh, CNOT2 / RFU, ZNF268 / Fold change vs veh, ZNF268 / Fold change vs veh, ZNF507 / RFU, DGCR2 / Fold change vs veh, DGCR2 / RFU, WDSUB1 / Fold change vs veh, WDSUB1 / Fold change vs veh, HSP90B1 /// MIR3652 / RFU, ADSS / Fold change vs veh, ADSS / RFU, GK / Fold change vs veh, GK / RFU, ZNF148 / Fold change vs veh, ZNF148 / RFU, TAF9 / Fold change vs veh, TAF9 / RFU, SLC1A5 / Fold change vs veh, SLC1A5 / RFU, SLMO2 / Fold change vs veh, SLMO2 / RFU, ABCC4 / Fold change vs veh, ABCC4 / RFU, LOC101060439 /// RAP1B / Fold change vs veh, LOC101060439 /// RAP1B / RFU, RFX7 / Fold change vs veh, RFX7 / RFU, GTPBP10 / Fold change vs veh, GTPBP10 / RFU, CNEP1R1 / Fold change vs veh, CNEP1R1 / RFU, BIVM-ERCC5 /// ERCC5 / Fold change vs veh, BIVM-ERCC5 /// ERCC5 / RFU, ILF3 / Fold change vs veh, ILF3 / RFU 11762660_at / Fold change /veh 11762660_at / RFU VCAN (11757783_s_at) / Fold change /veh VCAN (11757783_s_at) / RFU DDX43 (11728927_at) / Fold change /veh DDX43 (11728927_at) / RFU KRT8 (11758188_x_at) / Fold change /veh KRT8 (11758188_x_at) / RFU NKD1 (11759106_at) / Fold change /veh NKD1 (11759106_at) / RFU SRD5A1 (11742802_a_at) / Fold change /veh SRD5A1 (11742802_a_at) / RFU TPSAB1 /// TPSB2 (11721975_s_at) / Fold change /veh TPSAB1 /// TPSB2 (11721975_s_at) / RFU GSTM3 (11746129_a_at) / Fold change /veh GSTM3 (11746129_a_at) / RFU IL23R (11737362_x_at) / Fold change /veh IL23R (11737362_x_at) / RFU TMEM51 (11727254_a_at) / Fold change /veh TMEM51 (11727254_a_at) / RFU PIWIL2 (11732686_x_at) / Fold change /veh PIWIL2 (11732686_x_at) / RFU ORM1 (11744905_x_at) / Fold change /veh ORM1 (11744905_x_at) / RFU CCDC152 (11743942_at) / Fold change /veh CCDC152 (11743942_at) / RFU ECM1 (11717891_a_at) / Fold change /veh ECM1 (11717891_a_at) / RFU IL23R (11748794_a_at) / Fold change /veh IL23R (11748794_a_at) / RFU TNFAIP8L3 (11732012_x_at) / Fold change /veh TNFAIP8L3 (11732012_x_at) / RFU MBOAT4 (11741988_at) / Fold change /veh MBOAT4 (11741988_at) / RFU 11764193_at / Fold change /veh 11764193_at / RFU TMEM53 (11763286_at) / Fold change /veh TMEM53 (11763286_at) / RFU MAGEB2 (11727129_at) / Fold change /veh MAGEB2 (11727129_at) / RFU TMEM200A (11744735_a_at) / Fold change /veh TMEM200A (11744735_a_at) / RFU CCDC152 (11751479_a_at) / Fold change /veh CCDC152 (11751479_a_at) / RFU FAM211A (11726209_a_at) / Fold change /veh FAM211A (11726209_a_at) / RFU RGS16 (11746705_a_at) / Fold change /veh RGS16 (11746705_a_at) / RFU VCAN (11755009_s_at) / Fold change /veh VCAN (11755009_s_at) / RFU RHOB (11743442_s_at) / Fold change /veh RHOB (11743442_s_at) / RFU RGS16 (11720943_a_at) / Fold change /veh RGS16 (11720943_a_at) / RFU RGS16 (11720944_at) / Fold change /veh RGS16 (11720944_at) / RFU, VPS4B / Fold change vs veh, VPS4B / RFU, CREB1 / Fold change vs veh, CREB1 / RFU, DNAJC13 / Fold change vs veh, DNAJC13 / RFU, GNAQ / Fold change vs veh, GNAQ / RFU, CDK5R1 / Fold change vs veh, CDK5R1 / RFU, ZRANB3 / Fold change vs veh, ZRANB3 / RFU, CUL4A / Fold change vs veh, CUL4A / RFU, CCNY / Fold change vs veh, CCNY / RFU, UFL1 / Fold change vs veh, UFL1 / RFU, COG3 / Fold change vs veh, COG3 / RFU, DIAPH2 / Fold change vs veh, DIAPH2 / RFU, SKA2 / Fold change vs veh, SKA2 / RFU, AFF3 / Fold change vs veh, AFF3 / RFU, LMF1 / Fold change vs veh, LMF1 / RFU, IPO11 / Fold change vs veh, IPO11 / RFU, DFFB / Fold change vs veh, DFFB / RFU, FOXP1 / Fold change vs veh, FOXP1 / RFU, CARD8 / Fold change vs veh, CARD8 / RFU, STRN3 / Fold change vs veh, STRN3 / RFU, ADK / Fold change vs veh, ADK / RFU, RASSF2 / Fold change vs veh, RASSF2 / RFU, WIPF1 / Fold change vs veh, WIPF1 / RFU, LARP1B / Fold change vs veh, LARP1B / RFU, RASA1 / Fold change vs veh, RASA1 / RFU, RB1 / Fold change vs veh, RB1 / RFU, PPFIA1 / Fold change vs veh, PPFIA1 / RFU, MAT2A / Fold change vs veh, MAT2A / RFU, CCT5 / Fold change vs veh, CCT5 / RFU, WDR92 / Fold change vs veh, WDR92 / RFU, CUX1 / Fold change vs veh, CUX1 / RFU, TTC7A / Fold change vs veh, TTC7A / RFU, TMEM135 / Fold change vs veh, TMEM135 / RFU, DEPTOR / Fold change vs veh, DEPTOR / RFU, CPM / Fold change vs veh, CPM / RFU, DNAJB6 / Fold change vs veh, DNAJB6 / RFU, CACNA2D3 / Fold change vs veh, CACNA2D3 / RFU, DTX4 / Fold change vs veh, DTX4 / RFU, TFCP2 / Fold change vs veh, TFCP2 / RFU, GMCL1 /// GMCL1P1 / Fold change vs veh, GMCL1 /// GMCL1P1 / RFU, AEBP2 / Fold change vs veh, AEBP2 / RFU, SNHG1 /// SNORD22 /// SNORD25 /// SNORD26 /// SNORD27 /// SNORD28 /// SNORD29 /// SNORD31 / Fold change vs veh, SNHG1 /// SNORD22 /// SNORD25 /// SNORD26 /// SNORD27 /// SNORD28 /// SNORD29 /// SNORD31 / Fold change (Aza/veh), C12orf56 (ProbeSet 11735607_a_at) / Fold change (ACY-1035/veh), C12orf56 (ProbeSet 11735607_a_at) / Fold change (Aza/veh), FGFR1OP (ProbeSet 11751329_s_at) / Fold change (ACY-1035/veh), FGFR1OP (ProbeSet 11751329_s_at) / Fold change (Aza/veh), VPS36 (ProbeSet 11739960_a_at) / Fold change (ACY-1035/veh), VPS36 (ProbeSet 11739960_a_at) / RFU SYPL1 (11715823_x_at) / Fold change /veh SYPL1 (11715823_x_at) / RFU IGFBP7 (11715501_s_at) / Fold change /veh IGFBP7 (11715501_s_at) / RFU REEP3 (11722064_at) / Fold change /veh REEP3 (11722064_at) / RFU IGLL1 (11728026_x_at) / Fold change /veh IGLL1 (11728026_x_at): dose or concentration left out as unconfirmed
# Conditions: MV-4-11 cells, 48 hours
compound,measurement,value
Nc1ncn([C@@H]2O[C@H](CO)[C@@H](O)[C@H]2O)c(=O)n1 [azacitidine],Fold change /veh FAM212B (11763350_a_at),1.13

# Source: paper PMC5218480 (PLoS ONE, 2017)
